Experimental findings from ChEMBL document CHEMBL2202979, “Development of macrocyclic inhibitors of HCV NS3/4A protease with cyclic constrained P2-P4 linkers” (Bioorg Med Chem Lett, 2012) are described below.

pIC50, pKi: −log10 of the molar value.

The nature of data set [1]: Drug level in Sprague-Dawley rat liver at 5 mg/kg, po measured 4 hrs post dose by LC/MS method. The data set is classed as ADME, organism-based. Set-up: dose 5 mg/kg, route oral. The settings on record: read-out: Drug uptake.
For data set [2], the target named is Genome polyprotein (Hepacivirus C, UniProt K7XJL6, A156V). The data set is described as follows: Inhibition of HCV genotype 1b BK NS3/4A protease A156V mutant expressed in Escherichia coli incubated for 30 mins by time-resolved fluorescence assay. Set-up: species or system Hepatitis C virus (isolate BK).
The target in data set [3] is Genome polyprotein (Hepacivirus C, UniProt K7XJL6, A156T). The data set is described as follows: Inhibition of HCV genotype 1b BK NS3/4A protease A156T mutant expressed in Escherichia coli incubated for 30 mins by time-resolved fluorescence assay. Set-up: species or system Hepatitis C virus (isolate BK).
Data set [4] concerns the target Hepatitis C virus serine protease, NS3/NS4A (Hepatitis C virus, UniProt A3EZI9+D2K2A8, R155K). The data set is described as follows: Inhibition of HCV genotype 1b BK NS3/4A protease R155K mutant expressed in Escherichia coli incubated for 30 mins by time-resolved fluorescence assay. The arrangement: species or system Hepatitis C virus (isolate BK).
The next data set has as its system Hepatitis C virus. The data set is described as follows: Antiviral activity against HCV genotype 1b Con1 infected in human Huh7 cells assessed as inhibition of viral replication in presence of 50% NHS by HCV bicistronic replicon assay. The data set is classed as functional, organism-based, Hepacivirus hominis. The settings on record: Con1, Huh-7.
A short description of data set [5]: Inhibition of HCV subtype 3a NS3/4A protease incubated for 30 mins by time-resolved fluorescence assay. The arrangement: species or system Hepatitis C virus subtype 3a.
The nature of data set [6]: Inhibition of HCV genotype 1b BK NS3/4A protease expressed in Escherichia coli incubated for 30 mins by time-resolved fluorescence assay. The arrangement: species or system Hepatitis C virus (isolate BK).

As to `C=C[C@@H]1C[C@]1(NC(=O)[C@@H]1C[C@@H]2CN1C(=O)[C@H](C1CCCCC1)NC(=O)N1CCC[C@@H](C1)OCCCc1cc3c(cc(OCC)nc3cc1OC)O2)C(=O)NS(=O)(=O)C1CC1`, the concentration at 4 h in data set [1] was 4.4 µM. The pKi on Genome polyprotein [2] was 7.34; at Genome polyprotein [3], 8.72; in data set [4], 8.92; in data set [5], 8.64; in data set [6], over 10.30. The pIC50 in the data set with Hepatitis C virus is 7.64.

Regarding `C=C[C@@H]1C[C@]1(NC(=O)[C@@H]1C[C@@H]2CN1C(=O)[C@H](C1CCCCC1)NC(=O)N1CCO[C@H](CCCCc3cc4c(cc(OCC)nc4cc3OC)O2)C1)C(=O)NS(=O)(=O)C1CC1`, the pKi at Genome polyprotein [3] is 8.16; in data set [4] it was 9.00; in data set [5] it was 8.28; in data set [6], over 10.30. Further, the pIC50 in the data set with Hepatitis C virus is 8.05.

In the case of `C=C[C@@H]1C[C@]1(NC(=O)[C@@H]1C[C@@H]2CN1C(=O)[C@H](C1CCCC1)NC(=O)N(C)[C@@H]1CCC[C@H]1C/C=C/c1cc3c(cc(OCC)nc3cc1OC)O2)C(=O)NS(=O)(=O)C1CC1`, in data set [1], the concentration at 4 h came to 15.9 µM. Also, the pKi on Genome polyprotein [2] was 7.74; at Genome polyprotein [3], 8.77; in data set [4], 9.22; in data set [5] it was 8.82; in data set [6] it was over 10.30. Besides, the pIC50 in the data set with Hepatitis C virus was 7.60.

With `C=C[C@@H]1C[C@]1(NC(=O)[C@@H]1C[C@@H]2CN1C(=O)[C@H](C1CCCCC1)NC(=O)O[C@@H]1CCCC[C@H]1C/C=C/c1cc3c(cc(OCC)nc3cc1OC)O2)C(=O)NS(=O)(=O)C1CC1`, the pKi on Genome polyprotein [2] was 6.25; on Genome polyprotein [3], 7.38; in data set [4], 8.82; in data set [5], 7.90; in data set [6], over 10.30. In addition, the pIC50 with Hepatitis C virus is 7.60.

In the case of `C=C[C@@H]1C[C@]1(NC(=O)[C@@H]1C[C@@H]2CN1C(=O)[C@H](C1CCCCC1)NC(=O)O[C@@H]1COC[C@H]1C/C=C/c1cc3c(cc(OCC)nc3cc1OC)O2)C(=O)NS(=O)(=O)C1CC1`, the concentration at 4 h in data set [1] is 0.3 µM. Besides, the pKi was 7.64 at Genome polyprotein [2]; 9.15 on Genome polyprotein [3]; 9.30 in data set [4]; 8.72 in data set [5]; over 10.30 in data set [6]. In addition, the pIC50 with Hepatitis C virus is 7.74.

As to `C=C[C@@H]1C[C@]1(NC(=O)[C@@H]1C[C@@H]2CN1C(=O)[C@H](C1CCCC1)NC(=O)O[C@@H]1COC[C@H]1CCC/C=C/c1cc3ccc(OC)cc3nc1O2)C(=O)NS(=O)(=O)C1CC1`, the pKi at Genome polyprotein [2] was 7.19; on Genome polyprotein [3] it was 8.11; in data set [4], 10.00; in data set [5], 8.24; in data set [6], over 10.30. The pIC50 with Hepatitis C virus is 8.30.

For `C=C[C@@H]1C[C@]1(NC(=O)[C@@H]1C[C@@H]2CN1C(=O)[C@H](C1CCCC1)NC(=O)N1CC(OCC)(CCCCc3cc4c(cc(OCC)nc4cc3OC)O2)C1)C(=O)NS(=O)(=O)C1CC1`, the pKi at Genome polyprotein [3] was 8.15; in data set [4], 9.05; in data set [5], 9.00; in data set [6] it was over 10.30. For the same compound, in the data set with Hepatitis C virus, the pIC50 is 7.74.

`C=C[C@@H]1C[C@]1(NC(=O)[C@@H]1C[C@@H]2CN1C(=O)[C@H](C1CCCC1)NC(=O)O[C@@H]1CCC(CCCc3cc4c(cc(OCC)nc4cc3OC)O2)C1)C(=O)NS(=O)(=O)C1CC1` (mixture of isomers): the pKi on Genome polyprotein [2] is 7.34; at Genome polyprotein [3], 8.34; in data set [4], 8.70; in data set [5], 8.30; in data set [6] it was over 10.30. In addition, the pIC50 in the data set with Hepatitis C virus is 7.62.

As for `C=C[C@@H]1C[C@]1(NC(=O)[C@@H]1C[C@@H]2CN1C(=O)[C@H](C1CCCCC1)NC(=O)N1CC[C@@H](C1)OC/C=C/c1cc3c(cc(OCC)nc3cc1OC)O2)C(=O)NS(=O)(=O)C1CC1`, the concentration at 4 h in data set [1] was determined as 4.8 µM. The pKi at Genome polyprotein [2] was 8.17; on Genome polyprotein [3], 9.40; in data set [4] it was 9.70; in data set [5], 8.85; in data set [6] it was over 10.30. Moreover, the pIC50 in the data set on Hepatitis C virus is 7.37.

`C=C[C@@H]1C[C@]1(NC(=O)[C@@H]1C[C@@H]2CN1C(=O)[C@H](C1CCCC1)NC(=O)OC1CCC1C/C=C/c1cc3c(cc(OCC)nc3cc1OC)O2)C(=O)NS(=O)(=O)C1CC1` (mixture of isomers): the pKi was 7.28 at Genome polyprotein [3], 8.66 in data set [4], 7.74 in data set [5] and over 10.30 in data set [6].

Turning to `C=C[C@@H]1C[C@]1(NC(=O)[C@@H]1C[C@@H]2CN1C(=O)[C@H](C1CCCC1)NC(=O)O[C@@H]1CCC[C@H]1CCC/C=C/c1cc3ccc(OC)cc3nc1O2)C(=O)NS(=O)(=O)C1CC1`, the concentration at 4 h in data set [1] was 30.8 µM. The pKi on Genome polyprotein [3] was 7.77; in data set [4] it was 9.70; in data set [5], 7.94; in data set [6], over 10.30. In the data set on Hepatitis C virus, the pIC50 was 7.24.

Turning to `C=C[C@@H]1C[C@]1(NC(=O)[C@@H]1C[C@@H]2CN1C(=O)[C@H](C1CCCC1)NC(=O)O[C@H]1C[C@H](C/C=C/c3cc4c(cc(OCC)nc4cc3OC)O2)C1)C(=O)NS(=O)(=O)C1CC1`, the pKi at Genome polyprotein [2] is 7.80; at Genome polyprotein [3] it was 8.32; in data set [4], 8.62; in data set [5], 8.11; in data set [6] it was over 10.30. In addition, in the data set with Hepatitis C virus, the pIC50 is 7.80.

On to `C=C[C@@H]1C[C@]1(NC(=O)[C@@H]1C[C@@H]2CN1C(=O)[C@H](C1CCCC1)NC(=O)N1CC[C@@H](C1)OCCCCCc1cc3ccc(OC)cc3nc1O2)C(=O)NS(=O)(=O)C1CC1`, for which the concentration at 4 h in data set [1] stood at 12 µM. Further, the pKi at Genome polyprotein [2] was 7.66; on Genome polyprotein [3], 8.82; in data set [4], 10.00; in data set [5], 8.23; in data set [6], over 10.30. The pIC50 with Hepatitis C virus is 7.51.

Regarding `C=C[C@@H]1C[C@]1(NC(=O)[C@@H]1C[C@@H]2CN1C(=O)[C@H](C1CCCCC1)NC(=O)N1CC[C@H](C1)OC/C=C/c1cc3c(cc(OCC)nc3cc1OC)O2)C(=O)NS(=O)(=O)C1CC1`, the pKi on Genome polyprotein [2] was 6.87; on Genome polyprotein [3] it was 8.62; in data set [4], 9.52; in data set [5], 8.44; in data set [6], over 10.30. For the same compound, the pIC50 in the data set on Hepatitis C virus is 7.54.

Turning to `C=C[C@@H]1C[C@]1(NC(=O)[C@@H]1C[C@@H]2CN1C(=O)[C@H](C1CCCCC1)NC(=O)N1CCC(CC1)OCCC/C=C/c1cc3ccc(OC)cc3nc1O2)C(=O)NS(=O)(=O)C1CC1`, the pKi at Genome polyprotein [3] is 7.96; in data set [4], 9.52; in data set [5], 7.57; in data set [6] it was over 10.30.

`C=C[C@@H]1C[C@]1(NC(=O)[C@@H]1C[C@@H]2CN1C(=O)[C@H](C1CCCC1)NC(=O)O[C@@H]1CCC[C@@]1(C)C/C=C/c1cc3c(cc(OCC)nc3cc1OC)O2)C(=O)NS(=O)(=O)C1CC1`: the pKi is 7.31 at Genome polyprotein [3], 9.05 in data set [4], 8.39 in data set [5] and over 10.30 in data set [6]. In addition, the pIC50 in the data set with Hepatitis C virus is 7.42.

On to `C=C[C@@H]1C[C@]1(NC(=O)[C@@H]1C[C@@H]2CN1C(=O)[C@H](C1CCCC1)NC(=O)N1CC(C1)OCCC/C=C/c1cc3ccc(OC)cc3nc1O2)C(=O)NS(=O)(=O)C1CC1`, for which the pKi is 7.55 at Genome polyprotein [3], 9.30 in data set [4], 7.42 in data set [5] and over 10.30 in data set [6].

For orientation: pKi means the negative decadic logarithm of the Ki, by convention in mol/L. Read a low pKi as a high Ki. A word on the pIC50: it is the IC50 on a negative log10 scale, so that one unit is a factor of ten.
